From PubChem BioAssay (NCI)
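In this assay, cells in 96-well plates receive the compound at five concentrations for 48 hours. Endpoints are linearly interpolated between the surrounding concentrations. TGI is the concentration that stops growth completely.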

Experiments:
Assay in all cases: DTP human tumour cell line panel, 48 h
PC-3 prostate = test system: PC-3 prostate
MDA-MB-435 = test system: MDA-MB-435
BT-549 breast = test system: BT-549 breast
NCI-H23 lung = test system: NCI-H23 lung
IGROV1 ovarian = test system: IGROV1 ovarian
TK-10 renal = test system: TK-10 renal
MCF7 breast = test system: MCF7 breast
A498 renal = test system: A498 renal
HOP-62 NSCLC = test system: HOP-62 NSCLC
786-0 renal = test system: 786-0 renal
HS 578T breast = test system: HS 578T breast
SF-268 CNS = test system: SF-268 CNS
OVCAR-4 ovarian = test system: OVCAR-4 ovarian
OVCAR-8 ovarian = test system: OVCAR-8 ovarian
HT29 colon = test system: HT29 colon
UO-31 renal = test system: UO-31 renal
MDA-N = test system: MDA-N
CCRF-CEM leukemia = test system: CCRF-CEM leukemia
EKVX NSCLC = test system: EKVX NSCLC
COLO 205 colon = test system: COLO 205 colon

With COc1ccc2nc3cc(Cl)ccc3c(NCCNCCCNC(=O)c3cc(-c4ccccc4)nc4ccccc34)c2c1 the TGI (PC-3 prostate) was > 100 µM, the TGI (MDA-MB-435) was > 100 µM and the TGI (BT-549 breast) was > 100 µM. The TGI (NCI-H23 lung) was > 100 µM, the TGI (IGROV1 ovarian) was > 100 µM and the TGI (TK-10 renal) was > 100 µM. The TGI (MCF7 breast) was > 100 µM, the TGI (A498 renal) was > 100 µM and the TGI (HOP-62 NSCLC) was > 100 µM. For the same molecule, the TGI (786-0 renal) was > 100 µM, the TGI (HS 578T breast) was > 100 µM and the TGI (SF-268 CNS) was > 100 µM. For the same molecule, the TGI (OVCAR-4 ovarian) was > 100 µM, the TGI (OVCAR-8 ovarian) was > 100 µM and the TGI (HT29 colon) was > 100 µM. For the same molecule, the TGI (UO-31 renal) was > 100 µM, the TGI (MDA-N) was 97.5 µM and the TGI (CCRF-CEM leukemia) was > 100 µM. For the same molecule, the TGI (EKVX NSCLC) was > 100 µM and the TGI (COLO 205 colon) was > 100 µM.

In the case of COc1cc(C2S/C(=C/c3ccccc3)C(=O)N2c2ccc(Cl)c(Cl)c2)cc(OC)c1OC (stereo not given), the TGI (PC-3 prostate) is reported as > 100 µM, the TGI (MDA-MB-435) is reported as > 90.4 µM and the TGI (BT-549 breast) is reported as > 100 µM. The TGI (NCI-H23 lung) was > 100 µM, the TGI (IGROV1 ovarian) was > 100 µM and the TGI (TK-10 renal) was > 100 µM. For the same molecule, the TGI (MCF7 breast) was > 87.7 µM, the TGI (A498 renal) was > 82.4 µM and the TGI (HOP-62 NSCLC) was > 100 µM. The TGI (786-0 renal) was > 100 µM, the TGI (HS 578T breast) was > 91.5 µM and the TGI (SF-268 CNS) was > 100 µM. The TGI (OVCAR-4 ovarian) was > 100 µM, the TGI (OVCAR-8 ovarian) was > 100 µM and the TGI (HT29 colon) was > 100 µM. The TGI (UO-31 renal) was > 100 µM, the TGI (MDA-N) was > 84.9 µM and the TGI (CCRF-CEM leukemia) was > 100 µM. For the same molecule, the TGI (EKVX NSCLC) was > 100 µM and the TGI (COLO 205 colon) was > 100 µM.

For Cc1c(NC2(C)C(=O)N(/N=C/c3ccccc3)N=C2c2ccccc2)n[nH]c1-c1ccccc1 (stereo not given), the TGI (PC-3 prostate) was > 100 µM, the TGI (MDA-MB-435) was > 100 µM and the TGI (BT-549 breast) was > 100 µM. The TGI (NCI-H23 lung) was > 100 µM, the TGI (IGROV1 ovarian) was > 100 µM and the TGI (TK-10 renal) was > 100 µM. The TGI (MCF7 breast) was > 100 µM, the TGI (A498 renal) was > 100 µM and the TGI (HOP-62 NSCLC) was > 100 µM. For the same molecule, the TGI (786-0 renal) was > 100 µM, the TGI (HS 578T breast) was > 100 µM and the TGI (SF-268 CNS) was > 100 µM. The TGI (OVCAR-4 ovarian) was > 100 µM, the TGI (OVCAR-8 ovarian) was > 100 µM and the TGI (HT29 colon) was > 100 µM. For the same molecule, the TGI (UO-31 renal) was > 100 µM, the TGI (MDA-N) was > 100 µM and the TGI (CCRF-CEM leukemia) was > 100 µM. For the same molecule, the TGI (EKVX NSCLC) was > 100 µM and the TGI (COLO 205 colon) was > 100 µM.

With C[N+](C)(C)c1ncnc2c1ncn2C1CCCCO1 (stereo not given) the TGI (PC-3 prostate) was > 100 µM, the TGI (MDA-MB-435) was > 100 µM and the TGI (BT-549 breast) was > 100 µM. For the same molecule, the TGI (NCI-H23 lung) was > 100 µM, the TGI (IGROV1 ovarian) was > 100 µM and the TGI (TK-10 renal) was > 100 µM. For the same molecule, the TGI (MCF7 breast) was > 100 µM, the TGI (A498 renal) was > 100 µM and the TGI (HOP-62 NSCLC) was > 100 µM. For the same molecule, the TGI (786-0 renal) was > 100 µM, the TGI (HS 578T breast) was > 100 µM and the TGI (SF-268 CNS) was > 100 µM. For the same molecule, the TGI (OVCAR-4 ovarian) was > 100 µM, the TGI (OVCAR-8 ovarian) was > 100 µM and the TGI (HT29 colon) was > 100 µM. The TGI (UO-31 renal) was > 100 µM, the TGI (MDA-N) was > 100 µM and the TGI (CCRF-CEM leukemia) was > 100 µM. For the same molecule, the TGI (EKVX NSCLC) was > 100 µM and the TGI (COLO 205 colon) was > 100 µM.

In the case of O=C1/C(=C2\Sc3c(ccc(Cl)c3Cl)C2=O)Sc2c1ccc(Cl)c2Cl, the TGI (PC-3 prostate) is reported as > 100 µM, the TGI (MDA-MB-435) is reported as > 100 µM and the TGI (BT-549 breast) is reported as > 100 µM. For the same molecule, the TGI (NCI-H23 lung) was > 100 µM, the TGI (IGROV1 ovarian) was > 100 µM and the TGI (TK-10 renal) was > 100 µM. The TGI (MCF7 breast) was > 100 µM, the TGI (A498 renal) was > 100 µM and the TGI (HOP-62 NSCLC) was > 100 µM. For the same molecule, the TGI (786-0 renal) was > 100 µM, the TGI (HS 578T breast) was > 100 µM and the TGI (SF-268 CNS) was > 100 µM. For the same molecule, the TGI (OVCAR-4 ovarian) was > 100 µM, the TGI (OVCAR-8 ovarian) was > 100 µM and the TGI (HT29 colon) was > 100 µM. The TGI (UO-31 renal) was > 100 µM, the TGI (MDA-N) was > 100 µM and the TGI (CCRF-CEM leukemia) was > 100 µM. The TGI (EKVX NSCLC) was > 100 µM and the TGI (COLO 205 colon) was > 100 µM.
